These results are taken from ChEMBL document CHEMBL3507680, “University of Dundee, Gates Library screen for HepG2 cell viability”.

A short description of the data set: Human HepG2 cell viability assay in 384 well format. To be noted: HepG2 cells, read-out: Inhibition. More on the design: dose 125 nL, time 70.5 hour; cytotoxicity at 70.5 h: concentration not given beside the values. In kind it is toxicity, cell-based.

As to `CCn1ccc(NS(=O)(=O)c2cccc(CSC)c2)n1`, the cytotoxicity at 70.5 h came out at 3.12%.

With `CSCc1cccc(S(=O)(=O)NCCO)c1`, the cytotoxicity at 70.5 h turned out to be 0.997%.

For `COCCCNS(=O)(=O)c1cccc(CSC)c1`, the cytotoxicity at 70.5 h was -16.6%.

`CCn1ccc(NC(=O)CCc2c(C)noc2C)n1`: the cytotoxicity at 70.5 h is -7.45%.

In the case of `CCn1cc(NC(=O)C2CCC(=O)N2Cc2ccc(C)o2)cn1` (stereo not given), the cytotoxicity at 70.5 h is -2.42%.

In the case of `O=C(O)CSc1nccc(-c2ccc3c(c2)OCO3)n1`, the cytotoxicity at 70.5 h was -7.09%.

For the compound `Cc1nc(N2CCOCC2)ncc1-c1cc(O)nc(N2CCCC2)n1`, the cytotoxicity at 70.5 h is -2.77%.

With `Cc1ccccc1CNCc1cc(Cl)ccc1O`, the cytotoxicity at 70.5 h was -11.5%.

Consider `CCc1cc(=O)n(CC(=O)N2CCCCC2)c(-c2cccc(F)c2)n1`, for which the cytotoxicity at 70.5 h was -9.52%.

For the compound `CCN(CC)C(=O)CSc1nc2cc(C)nc-2c(O)n1Cc1ccco1`, the cytotoxicity at 70.5 h was -10.9%.

With `CC(=O)N1CCN(C(=O)c2[nH]nnc2Nc2ccccc2F)CC1`, the cytotoxicity at 70.5 h came out at 8.05%.

For the compound `c1cnc(-c2nn3c(CN4CCCCC4)nnc3s2)cn1`, the cytotoxicity at 70.5 h was -6.5%.

As for `CCc1ccccc1N1CC(c2nnc(N)s2)CC1=O` (stereo not given), the cytotoxicity at 70.5 h is -13.1%.

`Cc1cc(C(=O)NCc2c(C)nn(C)c2C)nc(N2CCOCC2)n1`: the cytotoxicity at 70.5 h is -1.14%.

For `c1ccc(-c2nn3c(CN4CCOCC4)nnc3s2)nc1`, the cytotoxicity at 70.5 h was -3.21%.

Turning to `c1cnc(-c2nn3c(CN4CCOCC4)nnc3s2)cn1`, the cytotoxicity at 70.5 h is -10.2%.

On to `CCN(CC)Cc1nnc2sc(C(C)Oc3ccccc3)nn12` (stereo not given), for which the cytotoxicity at 70.5 h is 4.82%.

On to `Cc1ncc2c(n1)CCCC2NC(=O)c1ccc(Cn2cccn2)cc1` (stereo not given), for which the cytotoxicity at 70.5 h was -5.6%.

For `O=C(Cc1ccsc1)N1CCC(c2noc(-c3cccnc3)n2)CC1`, the cytotoxicity at 70.5 h was -2.37%.

On to `CCCN1C[C@H](NC(=O)c2ccccc2F)[C@@H](c2ccc(OC)cc2)C1`, for which the cytotoxicity at 70.5 h turned out to be 0.779%.

In the case of `NC(=O)C1CCN(C(=O)CCn2c(C(F)(F)F)cc3cccnc32)CC1`, the cytotoxicity at 70.5 h worked out at 3.01%.

With `O=C(c1ccc(O)nc1)N1Cc2ccccc2OC2(CCOCC2)C1`, the cytotoxicity at 70.5 h stood at 0.0352%.

With `O=C(CCn1c(C(F)(F)F)cc2cccnc21)N1CCC(O)CC1`, the cytotoxicity at 70.5 h was 2.54%.

As to `O=C(c1cncnc1)N1Cc2ccccc2OC2(CCOCC2)C1`, the cytotoxicity at 70.5 h was found to be 2.98%.

For the compound `Cn1nccc1C(=O)N1Cc2cc(Cl)ccc2OC2(CCOCC2)C1`, the cytotoxicity at 70.5 h was found to be 2.41%.

In the case of `CCc1cc(C(=O)N2Cc3ccccc3OC3(CCOCC3)C2)on1`, the cytotoxicity at 70.5 h is 8.33%.

For `C[C@H](NC(=O)C1CC1)c1nc2cc(-c3ccc(F)cc3)ncn2n1`, the cytotoxicity at 70.5 h was 2.87%.

Regarding `O=C(CN1CCCC1)N1CCCC(c2cc(=O)n3c(n2)CCCCC3)C1` (stereo not given), the cytotoxicity at 70.5 h was found to be 2.75%.

`O=C(Cc1ccsc1)N1CCC(c2noc(-c3ccncc3)n2)CC1`: the cytotoxicity at 70.5 h is -0.304%.

Consider `COc1ccccc1C1=NOC(CC2(C(=O)O)CCOCC2)C1` (stereo not given), for which the cytotoxicity at 70.5 h was 19.1%.

Regarding `c1ccc(-c2cc(CNCCCN3CCCCC3)c3nnnn3c2)cc1`, the cytotoxicity at 70.5 h is -0.978%.

As to `CCNC(=O)C1(CC2CC(c3ccccc3OC)=NO2)CCOCC1` (stereo not given), the cytotoxicity at 70.5 h is -0.996%.

`CC(C)CNC(=O)C1(Cc2ccccc2-c2ccccc2)CCNC1` (stereo not given): the cytotoxicity at 70.5 h was -3.17%.

`CN(C)CC(=O)N1C[C@@H]2CC[C@H](Oc3ccccc3)[C@@H]2C1`: the cytotoxicity at 70.5 h is -0.0251%.

As to `COCCOCC(=O)N1C[C@@H]2CC[C@H](Oc3ccccc3)[C@@H]2C1`, the cytotoxicity at 70.5 h is -3.37%.

`Cc1cc(CCC2CN(Cc3ccccc3C(=O)O)CCO2)ncn1` (stereo not given): the cytotoxicity at 70.5 h is -3.08%.

`CN(C)CCN(C)C(=O)c1ccccc1-n1cc(CN(C)C)cn1`: the cytotoxicity at 70.5 h was -0.093%.

Turning to `Cc1noc(C)c1-c1ccc(C2CCCN2C(=O)Cn2ccnc2)nc1` (stereo not given), the cytotoxicity at 70.5 h turned out to be 15.1%.

Regarding `Cc1nc2ccc(C(=O)N3C[C@@H](O)[C@H](N4CCCC4)C3)cc2[nH]1`, the cytotoxicity at 70.5 h is -1.69%.

For the compound `Cc1noc(C)c1-c1ccc(C2CCCN2CCC(N)=O)nc1` (stereo not given), the cytotoxicity at 70.5 h was -3.28%.

Take `N[C@@H]1CCC[C@@H](Oc2ccc(F)cc2Oc2ccccc2)[C@@H]1O`: the cytotoxicity at 70.5 h was determined as 20.8%.

Regarding `C[C@]12CCCCN(C(=O)c3ccccn3)[C@H]1CCCC(=O)N2`, the cytotoxicity at 70.5 h was 5.15%.

Regarding `Cc1ccnn1CCC(=O)N1C[C@@H](O)[C@H](Oc2cccc(F)c2)C1`, the cytotoxicity at 70.5 h was -2.79%.

For `Cc1sc2c(C3CCCN(C(C)C)C3)nc(C)n2c1C` (stereo not given), the cytotoxicity at 70.5 h is -3.36%.

On to `CN1CCCC(c2ccnc(C(=O)NC3CC3)c2)C1` (stereo not given), for which the cytotoxicity at 70.5 h is -3.68%.

For the compound `CCCn1ccnc1CN1CCCC1c1cccc(-n2ccnc2)n1` (stereo not given), the cytotoxicity at 70.5 h stood at 11%.

For `Cc1ccc(Oc2cc(F)ccc2O[C@@H]2CCC[C@@H](N)[C@H]2O)cc1`, the cytotoxicity at 70.5 h was 16%.

In the case of `O=S(=O)(c1ccccc1F)N1CCCC(c2nccs2)C1` (stereo not given), the cytotoxicity at 70.5 h was -1.24%.

Consider `N[C@@H]1CCC[C@@H](Oc2ccc(F)cc2Oc2cccc(F)c2)[C@@H]1O`, for which the cytotoxicity at 70.5 h was -1.82%.

Take `Cc1nc(C)c(C(=O)N2CCCC2c2nc(O)cc(C(C)C)n2)s1` (stereo not given): the cytotoxicity at 70.5 h was -6.05%.

Regarding `O=C(N[C@@H]1CCC[C@@H](N2CCCC2)[C@@H]1O)c1cc2ccccc2[nH]1`, the cytotoxicity at 70.5 h is -8.28%.

Take `O=C(N[C@@H]1CCC[C@@H](N2CCOCC2)[C@@H]1O)c1cc2ccccc2[nH]1`: the cytotoxicity at 70.5 h was -5.17%.

Consider `Cc1ncc(CN2CCOC(c3ccc(-c4cc[nH]n4)cn3)C2)s1` (stereo not given), for which the cytotoxicity at 70.5 h is -2.9%.

On to `O=C(NCCO)C1CN(c2cncnc2)CCO1` (stereo not given), for which the cytotoxicity at 70.5 h was -8.3%.

With `Cc1cccc(C(=O)N2CCCC[C@]3(C)NC(=O)CCC[C@H]23)n1`, the cytotoxicity at 70.5 h was -8.97%.

Turning to `Cc1ncc(CN2C[C@H]3C[C@H](OCc4ccccc4)C[C@H]3C2)cn1`, the cytotoxicity at 70.5 h was -6.93%.

For `Cc1cccc(CC2CCCN(C(=O)C3CCOCC3)C2)n1` (stereo not given), the cytotoxicity at 70.5 h was -8.54%.

Regarding `COc1cccc(CC(=O)N2CCCC2c2nc(C)c(F)c(O)n2)c1` (stereo not given), the cytotoxicity at 70.5 h was -1.47%.

Turning to `Cn1ccnc1C(=O)N1CCOC(Cc2ccc(Cl)cc2)C1` (stereo not given), the cytotoxicity at 70.5 h is -8.65%.

With `Cc1cc(C(N)=O)nc(C2(C)CCCN2Cc2cnn(C)c2C)n1` (stereo not given), the cytotoxicity at 70.5 h was -0.0176%.

For `CN1CCN(C(=O)C2CCN(c3cccnn3)CC2)CC1`, the cytotoxicity at 70.5 h was -5.88%.

Turning to `Cc1cc(C)nc(C2CCN(C(=O)c3cnco3)C2)n1` (stereo not given), the cytotoxicity at 70.5 h is -6.7%.

In the case of `CCCC(=O)N1CCCCC1c1nccc(C)n1` (stereo not given), the cytotoxicity at 70.5 h came out at 8.32%.

As for `Cc1nc(Nc2nnc(C)s2)cc(C2CCCN2C(C)C)n1` (stereo not given), the cytotoxicity at 70.5 h was determined as 5.99%.

For the compound `CC(=O)N1CCCC1c1cc(Nc2nnc(C)s2)nc(C)n1` (stereo not given), the cytotoxicity at 70.5 h turned out to be 17.2%.

In the case of `CN1CCC(c2cncc(-c3cccc(Cl)c3)n2)CC1`, the cytotoxicity at 70.5 h is -2.71%.

Regarding `CCc1nnc(Nc2cccc(C3CCN(S(=O)(=O)N(C)C)CC3)n2)s1`, the cytotoxicity at 70.5 h was -6.79%.

For the compound `CC(=O)N1CCCC(c2ccnc(N(C)C)n2)C1` (stereo not given), the cytotoxicity at 70.5 h was -12.5%.

On to `Cc1nc(Nc2ncccn2)cc(C2CCCN2C)n1` (stereo not given), for which the cytotoxicity at 70.5 h was -7.58%.

Consider `Cc1nc(Nc2nnc(C)s2)cc(C2CCCN2c2ccncc2)n1` (stereo not given), for which the cytotoxicity at 70.5 h is -5.11%.

Regarding `NC(=O)CN1CCCCC1c1nc(N)ncc1-c1cccc(F)c1` (stereo not given), the cytotoxicity at 70.5 h was -4.69%.

Consider `CC(C#N)CN(C)C(=O)CCNC(=O)OC(C)(C)C` (stereo not given), for which the cytotoxicity at 70.5 h was -6.35%.

Turning to `CC(C#N)CN(C)C(=O)CCNC(=O)OCC(F)(F)F` (stereo not given), the cytotoxicity at 70.5 h is -0.113%.

Turning to `CN1CCOC(CNCc2cnc(C(C)(C)C)s2)C1` (stereo not given), the cytotoxicity at 70.5 h worked out at 0.446%.

Take `Cc1nc(CN2CCOC3(CCCC3)C2)no1`: the cytotoxicity at 70.5 h was -5.91%.

Turning to `C1CC(CN2CCCCC2C2OCCO2)C1` (stereo not given), the cytotoxicity at 70.5 h came to 3.56%.

For `CC(C)C(NCc1ccc(Cn2cncn2)cc1)c1ccc(F)cn1` (stereo not given), the cytotoxicity at 70.5 h is -0.795%.

Turning to `C(=C\c1ccccc1)/CNCC1CCc2nncn2C1` (stereo not given), the cytotoxicity at 70.5 h came out at 5.32%.

Consider `Cc1cc(NC(=O)CN2CCOC(CN(C)C)C2)n(C)n1` (stereo not given), for which the cytotoxicity at 70.5 h amounted to 17.6%.

As to `CN1CCN(C)C(CNC(=O)N(C)Cc2ccccc2Cl)C1` (stereo not given), the cytotoxicity at 70.5 h is -0.256%.

In the case of `CN1CCN(S(=O)(=O)c2ccc(Sc3nccn3C)nc2)CC1`, the cytotoxicity at 70.5 h turned out to be 21.6%.

Take `O=C(CCOCc1ccccc1)NS(=O)(=O)N1CCOc2ccccc21`: the cytotoxicity at 70.5 h is 11%.

`O=C(CCc1ccco1)NS(=O)(=O)N1CCOc2ccccc21`: the cytotoxicity at 70.5 h was -1.31%.

With `CC(O)CN(C(=O)NC1CC1)C(C)C` (stereo not given), the cytotoxicity at 70.5 h came out at 29.8%.

With `CS(=O)(=O)CCn1ccc(NC(=O)Cc2ccccc2F)n1`, the cytotoxicity at 70.5 h turned out to be 3.54%.

With `Cn1ccc(NC(=O)Cc2ccccc2F)n1`, the cytotoxicity at 70.5 h amounted to 19.9%.

As to `CC(C)N(CC(C)(C)O)C(=O)NC1CC1`, the cytotoxicity at 70.5 h came out at 20.8%.

`CCN(CC)S(=O)(=O)NCC(O)c1c(Cl)cccc1Cl` (stereo not given): the cytotoxicity at 70.5 h is 8.36%.

As to `CC(O)CN(C(=O)NC1CCN(CC2CCCCC2)CC1)C(C)C` (stereo not given), the cytotoxicity at 70.5 h was determined as 1.48%.

As for `Cn1c(NCc2ccc(C(N)=O)cc2)nc2cc(Cl)ccc21`, the cytotoxicity at 70.5 h amounted to 18.9%.

As to `CCOC(C)c1nccn1CC(=O)Nc1cc(C)on1` (stereo not given), the cytotoxicity at 70.5 h is -0.0484%.

Turning to `CCc1nc(NS(=O)(=O)c2cccc(F)c2C)no1`, the cytotoxicity at 70.5 h stood at 7%.

Turning to `Cc1cc2c(=O)n3c(nc2s1)CCN(Cc1c[nH]cn1)CC3`, the cytotoxicity at 70.5 h was 1%.

Consider `c1ccc(-c2cc(CNCCCC3CCOC3)c3nnnn3c2)cc1` (stereo not given), for which the cytotoxicity at 70.5 h was determined as 5.9%.

On to `CC(C)OCCCN(Cc1ccncc1)Cc1cc(F)cc(F)c1`, for which the cytotoxicity at 70.5 h worked out at 58.6%.

`Cc1cc(C(=O)N2CCc3nc(C4CCCN4)ncc3C2)cs1` (stereo not given): the cytotoxicity at 70.5 h was -4.19%.

As to `CNCC(=O)N1CC(c2cc(Nc3nc(C)cs3)nc(C)n2)C1`, the cytotoxicity at 70.5 h was -12.3%.

`Clc1ccccc1CN1CCc2nc(C3CCCNC3)ncc2C1` (stereo not given): the cytotoxicity at 70.5 h was -7.56%.

Consider `CC(C)C[C@H](N)C(=O)N1CCSc2ccccc2C1`, for which the cytotoxicity at 70.5 h came out at 0.624%.

As for `COc1cc2c(cc1CN1CCn3c(CO)nnc3C1)CCC2`, the cytotoxicity at 70.5 h was 8.8%.
